Consider 32 compounds from publication PMC12932713, “Structure-activity relationship of prevalent synthetic cannabinoid metabolites on hCB1 in vitro and in silico dynamics” (Acta Pharmacologica Sinica, 2025).

Broadly, the EC50 is the midpoint of the concentration-response curve.

Where “and” joins values, the source holds several entries; their conditions need not be identical. Equal values may be shown once.

The test system of one assay is CB1 receptor. As to conditions: cited from earlier work.
For the next assay, the target named is hCB1 receptor (Homo sapiens, UniProt P21554). The assay is described as follows: AequoScreen hCB1 receptor assay (flash luminescence, recombinant CHO-K1 cells). As to conditions: for Emax: CHO-K1, read-out: Efficacy (% JWH-018 activity), Emax, Emax from dose-response curves, normalized to JWH-018 at 20 µg/mL; for Emax / Efficacy (% JWH-018 activity), Emax: triplicates; for EC50: EC50, 8 concentrations 20 µg/mL to 76 or 9.5 ng/mL, normalized to JWH-018 between runs; for Potency retained, % of the potency of the parent: hydroxyindole metabolites versus AM-2201 or JWH-018; for Efficacy (% JWH-018 activity), Emax: Emax from dose-response curves, normalized to JWH-018 at 20 µg/mL.
hCB1 receptor, sequence (P21554 whole entry): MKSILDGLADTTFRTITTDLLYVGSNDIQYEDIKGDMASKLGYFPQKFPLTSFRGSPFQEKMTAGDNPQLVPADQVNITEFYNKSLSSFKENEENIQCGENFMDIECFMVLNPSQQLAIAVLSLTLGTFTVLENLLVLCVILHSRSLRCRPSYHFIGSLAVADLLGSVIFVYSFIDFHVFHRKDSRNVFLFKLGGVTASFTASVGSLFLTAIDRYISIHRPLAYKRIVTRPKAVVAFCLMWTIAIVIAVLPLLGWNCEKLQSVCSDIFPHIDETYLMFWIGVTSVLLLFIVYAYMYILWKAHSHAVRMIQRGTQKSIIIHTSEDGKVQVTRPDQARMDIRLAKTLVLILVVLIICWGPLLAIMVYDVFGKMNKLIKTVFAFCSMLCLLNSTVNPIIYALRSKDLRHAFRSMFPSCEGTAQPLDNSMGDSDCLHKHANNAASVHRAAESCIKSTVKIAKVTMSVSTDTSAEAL

Assay [1] concerns serotonin receptor 5-HT2A. The arrangement: method as in PMID 27779402, PMID 33160102, PMID 21755008. As to conditions: cited from earlier work.

For `O=C(c1cccc2ccccc12)c1cn(CCCCCO)c2ccccc12` [5-OH pentyl JWH-018], the “hCB1 activity in other in vitro studies, in words” value (from here on “hCB1 activity in other”) in the assay on CB1 receptor is “active metabolites”. Also, at hCB1 receptor, the Emax stood at 63.1% and the 50% effective concentration (EC50) was found to be 178 nM. Further, at hCB1 receptor (less than 20% efficacy regarded as inactive), the “hCB1 activity class in words (full agonist, partial agonist, inactive)” value is reported as “partial agonist”.
Turning to `O=C(c1cccc2ccccc12)c1c(O)n(CCCCCF)c2ccccc12` [2-OH indole AM-2201], on hCB1 receptor, the Emax came out at 0.26%.
As to `O=C(c1cccc2ccccc12)c1cn(CCCCCF)c2cccc(O)c12` [4-OH indole AM-2201], on hCB1 receptor, the Emax came to 94.6%; the half-maximal effective concentration (EC50) was 44 nM and 43.7 nM; the “Potency retained, % of the potency of the parent” value (“Potency retained, %” for short) is 83%.
On to `O=C(c1cccc2ccccc12)c1cn(CCCCCF)c2ccccc12` [AM-2201, [1-(5-fluoropentyl)-1H-indol-3-yl]-1-naphthalenyl-methanone, reference compound], for which, on hCB1 receptor, the Emax is 99.7%; the EC50 is 36 nM and 36.4 nM.
Consider `O=C(c1cccc2ccccc12)c1cn(CCCCCF)c2ccc(O)cc12` [5-OH indole AM-2201], for which, on hCB1 receptor, the Emax was found to be 93.4%; the half-maximal effective concentration (EC50) stood at 306 nM; the “Potency retained, %” value was “over 12%”.
Consider `CCCC(O)Cn1nc(C(=O)c2cccc3ccccc23)c2ccccc21` (stereo not drawn) [2-OH pentyl THJ-018], for which, at hCB1 receptor, the Emax turned out to be 93.6% and the EC50 was 1110 nM.
Turning to `CCC(O)CCn1cc(C(=O)c2cccc3ccccc23)c2ccccc21` (stereo not drawn) [3-OH pentyl JWH-018], on hCB1 receptor, the Emax came out at 96% and the EC50 came to 3510 nM.
As to `CCCCCn1cc(C(=O)c2cccc3ccccc23)c2cccc(O)c21` [7-OH indole JWH-018], the “Activity on the CB1 receptor in words” value in the assay with CB1 receptor was “active”. Further, at hCB1 receptor, the Emax was under 20% and the “Efficacy (% JWH-018 activity), Emax” value stood at 15.81 % JWH-018 activity.
Take `O=C(c1cccc2ccccc12)c1cn(CCCCCO[C@@H]2O[C@H](C(=O)O)[C@@H](O)[C@H](O)[C@H]2O)c2ccccc12` [reference compound]: in the assay on CB1 receptor, the “Activity on hCB1 in words” value is reported as “neutral antagonist”.
Take `CCCCCn1cc(C(=O)c2cccc3ccccc23)c2ccc(O)cc21` [6-OH indole JWH-018]: in the assay on CB1 receptor, the “Activity on the CB1 receptor in words” value was “active” and the “hCB1 activity in other” value is “significantly less Emax than its 5-hydroxy isomer”. At hCB1 receptor, the Emax was 59%; the EC50 stood at 460 nM; the “Efficacy (% JWH-018 activity), Emax” value was determined as 59.31 % JWH-018 activity; the “Potency retained, %” value amounted to 4%.
For the compound `O=C(c1cccc2ccccc12)c1nn(CCCC(O)CF)c2ccccc12` (stereo not drawn) [4-OH-pentyl THJ-2201], on hCB1 receptor, the Emax amounted to 99.2% and the EC50 came out at 13.7 nM. The “Potency increase versus the parent SC” value at hCB1 receptor (metabolite more potent than parent) was found to be 2.2 ×.
On to `CCCC(O)Cn1cc(C(=O)c2cccc3ccccc23)c2ccccc21` (stereo not drawn) [2-OH pentyl JWH-018], for which, on hCB1 receptor, the Emax is 82% and the half-maximal effective concentration (EC50) was determined as 750 nM.
For the compound `O=C(c1cccc2ccccc12)c1cn(CCCCCF)c2c(O)cccc12` [7-OH indole AM-2201], on hCB1 receptor, the Emax is 110%; the EC50 came to 282 nM; the “Efficacy (% JWH-018 activity), Emax” value is 109.80 % JWH-018 activity; the “Potency retained, %” value is on record as “over 12%”.
As to `O=C(c1cccc2ccccc12)c1nn(CC(O)CCCF)c2ccccc12` (stereo not drawn) [2-OH-pentyl THJ-2201], at hCB1 receptor, the Emax was 87% and the EC50 is 403 nM.
`O=C(c1cccc2ccccc12)c1nn(CCC(O)CCF)c2ccccc12` (stereo not drawn) [3-OH-pentyl THJ-2201]: at hCB1 receptor, the Emax was 101% and the EC50 was found to be 159 nM.
Take `CC(O)CCCn1cc(C(=O)c2cccc3ccccc23)c2ccccc21` (stereo not drawn) [4-OH pentyl JWH-018]: the “hCB1 activity in other” value in the assay with CB1 receptor is “active metabolites”. Further, on hCB1 receptor, the Emax came to 105% and the EC50 stood at 288 nM.
Regarding `O=C(c1cccc2ccccc12)c1nn(CCCCCF)c2ccccc12` [THJ-2201, [1-(5-fluoropentyl)-1H-indazol-3-yl]-1-naphthalenyl-methanone, reference compound], at hCB1 receptor, the Emax turned out to be 92.8%; the EC50 is 30.7 nM and 30.6 nM.
Consider `O=C(c1cccc2ccccc12)c1cn(CCCCCF)c2cc(O)ccc12` [6-OH indole AM-2201], for which, on hCB1 receptor, the Emax stood at 94%; the concentration giving a half-maximal response (EC50) amounted to 122 nM; the “Efficacy (% JWH-018 activity), Emax” value is reported as 94.04 % JWH-018 activity; the “Potency retained, %” value is “over 12%”.
As for `CCCCCn1cc(C(=O)c2cccc3ccccc23)c2cc(O)ccc21` [5-OH indole JWH-018], in the assay with CB1 receptor, the “Activity on the CB1 receptor in words” value is listed as “active”. At hCB1 receptor, the Emax amounted to 88.9%; the EC50 turned out to be 1130 nM; the “Potency retained, %” value is 4%.
With `CCCCCn1c(O)c(C(=O)c2cccc3ccccc23)c2ccccc21` [2-OH indole JWH-018], the Emax on hCB1 receptor was -0.38%.
Take `O=C(O)CCCCn1nc(C(=O)c2cccc3ccccc23)c2ccccc21` [Pentanoic acid THJ-018]: the Emax on hCB1 receptor worked out at 11.7%.
Consider `O=C(c1cccc2ccccc12)c1cn(CCC(O)CCF)c2ccccc12` (stereo not drawn) [3-OH pentyl AM-2201], for which, on hCB1 receptor, the Emax was 100% and the concentration giving a half-maximal response (EC50) stood at 221 nM.
As for `CCC(O)CCn1nc(C(=O)c2cccc3ccccc23)c2ccccc21` (stereo not drawn) [3-OH pentyl THJ-018], on hCB1 receptor, the Emax was determined as 99.8% and the EC50 amounted to 202 nM.
For `O=C(O)CCCCn1cc(C(=O)c2cccc3ccccc23)c2ccccc21` [Pentanoic acid JWH-018], the “hCB1 activity in other” value in the assay on CB1 receptor was “inactive”. Besides, the Emax on hCB1 receptor is 0.23%.
`CCCCCn1cc(C(=O)c2cccc3ccccc23)c2c(O)cccc21` [4-OH indole JWH-018]: the “Activity on the CB1 receptor in words” value in the assay on CB1 receptor is listed as “active”. Further, on hCB1 receptor, the Emax was found to be 89.8%; the half-maximal effective concentration (EC50) came to 83.6 nM; the “Potency retained, %” value is 51%.
For `CCCCCn1cc(C(=O)O)c2ccccc21` [carboxylic acid PB-22, reference compound], the “CB1 / hCB1 activity in words” value with CB1 receptor (in vivo rat model and in vitro) is “inactive”. In addition, the “Activation of the serotonin receptor 5-HT2A in words” value in assay [1] is given as “activated”.
Turning to `CCCCCn1cc(C(=O)c2cccc3ccccc23)c2ccccc21` [JWH-018, 1-naphthalenyl(1-pentyl-1H-indol-3-yl)-methanone, reference compound], the “hCB1 activity in other” value in the assay with CB1 receptor is reported as “agonist at nanomolar concentrations”. On hCB1 receptor, the Emax came to 102% and the EC50 stood at 42.4 nM.
Turning to `CC(O)CCCn1nc(C(=O)c2cccc3ccccc23)c2ccccc21` (stereo not drawn) [4-OH pentyl THJ-018], at hCB1 receptor, the Emax is 98.5% and the 50% effective concentration (EC50) came to 175 nM.
Consider `O=C(c1cccc2ccccc12)c1nn(CCCCCO)c2ccccc12` [5-OH pentyl THJ-018], for which, at hCB1 receptor, the Emax was found to be 67.3% and the EC50 was 274 nM.
Turning to `O=C(c1cccc2ccccc12)c1cn(CC(O)CCCF)c2ccccc12` (stereo not drawn) [2-OH pentyl AM-2201], at hCB1 receptor, the Emax was found to be 95.1% and the half-maximal effective concentration (EC50) is 375 nM.
Take `O=C(c1cccc2ccccc12)c1cn(CCCC(O)CF)c2ccccc12` (stereo not drawn) [4-OH pentyl AM-2201]: on hCB1 receptor, the Emax came to 97.1% and the concentration giving a half-maximal response (EC50) was found to be 63.6 nM.
On to `CCCCCn1nc(C(=O)c2cccc3ccccc23)c2ccccc21` [THJ-018, 1-naphthalenyl(1-pentyl-1H-indazol-3-yl)-methanone, reference compound], for which, at hCB1 receptor, the Emax came to 96.4%; the half-maximal effective concentration (EC50) is 48.8 nM; the “Efficacy (% JWH-018 activity), Emax” value stood at 96.34 % JWH-018 activity.
